The values that follow come from patent publication US20240409963A1, “Use of Inhibitors to Increase Efficiency of Crispr/CAS Insertions” (AstraZeneca AB, priority 2021, published 2024).

Assay [1] has as its system HEK293T cells. Briefly: Different DNAPK inhibitors on precise gene editing outcomes, Example 8.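 On all read-outs here: cells transfected with plasmids for SpCas9-EGFP, editing outcomes quantified from genomic DNA by deep targeted amplicon sequencing with bioinformatic analysis.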 The note with it: for HDR to indel ratio / Precise KI fold increase: gINS + ssDNA; for Precise KI fold increase: vs DMSO; for MMEJ indels Mean / NHEJ indels Mean / Total editing Mean: sgRNA CD34 (gINS) + ssDNA, 70 hours post-transfection.
Method: Cells allowed to attach for 12 hours before transfection. Cells were transfected with DNA plasmids encoding for SpCas9-EGFP and a sgRNAs targeting CD34 (gINS) in the presence of single-stranded oligonucleotide donor (ssDNA). 70 hours post-transfection cell confluence and EGFP-based transfection efficiencies were determined with the Incucyte S3. Genomic DNA was extracted and editing outcome was analysed through deep-targeted amplicon sequencing using bioinformatic analysis.
For assay [2], the system named is HEK293T cells. Briefly: PolQ inhibitor ART558 titration on precise gene editing outcomes, Example 10. It is filed as cell-based. The conditions noted are these: HEK293T, with 1 μM AZD7648. The protocol: HEK293T cells were seeded into 96-well plates and allowed to attach for 20 hours.

SMILES strings stand for the structures.

Take `Cc1nccnc1C(O)c1ccc(F)c(-c2ncnc3cc(N4CCOCC4)ccc23)c1` (centres unmarked) [TLR1, (4-fluoro-3-(7-morpholinoquinazolin-4-yl)phenyl) (3-methylpyrazin-2-yl) methanol]: the “HDR to indel ratio” value in the assay with HEK293T cells [1] (DNAPK inhibitor 0.3125 μM) amounted to 0.4; in the assay on HEK293T cells [1] (DNAPK inhibitor 0.625 μM), 0.7; in the assay on HEK293T cells [1] (DNAPK inhibitor 1.25 μM) it was 0.9; with HEK293T cells [1] (DNAPK inhibitor 5 μM), 1.4; in the assay on HEK293T cells [1] (DNAPK inhibitor 10 μM) it was 1.5. Also, the “Precise KI fold increase” value in the assay on HEK293T cells [1] (DNAPK inhibitor 0.3125 μM) was found to be 1.9 fold; in the assay with HEK293T cells [1] (DNAPK inhibitor 0.625 μM), 2.4 fold; with HEK293T cells [1] (DNAPK inhibitor 1.25 μM), 2.6 fold; in the assay on HEK293T cells [1] (DNAPK inhibitor 5 μM), 2.5 fold; in the assay on HEK293T cells [1] (DNAPK inhibitor 10 μM) it was 2.0 fold. The “MMEJ indels Mean” value with HEK293T cells [1] (DNAPK inhibitor 0.3125 μM) was 15.4; with HEK293T cells [1] (DNAPK inhibitor 0.625 μM), 17.3; in the assay with HEK293T cells [1] (DNAPK inhibitor 1.25 μM), 16.9; in the assay with HEK293T cells [1] (DNAPK inhibitor 5 μM), 11.9; in the assay on HEK293T cells [1] (DNAPK inhibitor 10 μM), 9.2. The “NHEJ indels Mean” value with HEK293T cells [1] (DNAPK inhibitor 0.3125 μM) came out at 21.6; in the assay with HEK293T cells [1] (DNAPK inhibitor 0.625 μM), 12.3; in the assay on HEK293T cells [1] (DNAPK inhibitor 1.25 μM), 6.9; with HEK293T cells [1] (DNAPK inhibitor 5 μM), 1.7; with HEK293T cells [1] (DNAPK inhibitor 10 μM) it was 1.3. Moreover, the “Total editing Mean” value in the assay with HEK293T cells [1] (DNAPK inhibitor 0.3125 μM) was 66.4; with HEK293T cells [1] (DNAPK inhibitor 0.625 μM) it was 63.2; in the assay on HEK293T cells [1] (DNAPK inhibitor 1.25 μM) it was 58.1; in the assay on HEK293T cells [1] (DNAPK inhibitor 5 μM), 44.5; in the assay with HEK293T cells [1] (DNAPK inhibitor 10 μM), 34.1.
On to `[2H]c1nc(C)nc([2H])c1-c1cc(NC[C@@H](C)c2cccc3c(C(=O)NC)ccnc23)ncn1`, for which, in the assay with HEK293T cells [1] (DNAPK inhibitor 0.3125 μM), the “HDR to indel ratio” value was determined as 0.3, the “Precise KI fold increase” value came out at 1.5 fold, the “MMEJ indels Mean” value was 15.8 and the “NHEJ indels Mean” value is listed as 25.0. Further, the “Total editing Mean” value with HEK293T cells [1] (DNAPK inhibitor 0.3125 μM) is listed as 66.8. Moreover, in the assay on HEK293T cells [1] (DNAPK inhibitor 0.625 μM), the “HDR to indel ratio” value came to 0.5, the “Precise KI fold increase” value was 2.2 fold, the “MMEJ indels Mean” value is 17.8 and the “NHEJ indels Mean” value is 16.7. The “Total editing Mean” value with HEK293T cells [1] (DNAPK inhibitor 0.625 μM) stood at 66.8. For the same compound, in the assay on HEK293T cells [1] (DNAPK inhibitor 1.25 μM), the “HDR to indel ratio” value was determined as 0.7, the “Precise KI fold increase” value was 2.4 fold, the “MMEJ indels Mean” value was 18.1 and the “NHEJ indels Mean” value is reported as 9.0. Moreover, in the assay with HEK293T cells [1] (DNAPK inhibitor 1.25 μM), the “Total editing Mean” value turned out to be 60.4. Moreover, in the assay with HEK293T cells [1] (DNAPK inhibitor 5 μM), the “HDR to indel ratio” value came out at 1.1, the “Precise KI fold increase” value is 2.8 fold, the “MMEJ indels Mean” value came out at 17.1 and the “NHEJ indels Mean” value amounted to 2.4. Moreover, the “Total editing Mean” value in the assay on HEK293T cells [1] (DNAPK inhibitor 5 μM) was 55.0. Besides, in the assay on HEK293T cells [1] (DNAPK inhibitor 10 μM), the “HDR to indel ratio” value turned out to be 1.1, the “Precise KI fold increase” value is 2.7 fold, the “MMEJ indels Mean” value was 17.3 and the “NHEJ indels Mean” value came to 2.0. The “Total editing Mean” value with HEK293T cells [1] (DNAPK inhibitor 10 μM) is 53.4.
For the compound `Cc1cc2ncnn2cc1Nc1ncc2c(n1)N(C1CCOCC1)CC(=O)N2C` [TLR2, 5-methyl-2-((7-methyl-[1,2,4]triazolo[1,5-a]pyridin-6-yl)amino)-8-(tetrahydro-2H-pyran-4-yl)-7,8 dihydropteridin-6 (5H)-one], in the assay on HEK293T cells [1] (DNAPK inhibitor 0.3125 μM), the “HDR to indel ratio” value stood at 0.6, the “Precise KI fold increase” value came out at 2.3 fold, the “MMEJ indels Mean” value is listed as 16.7 and the “NHEJ indels Mean” value was 13.5. Also, in the assay with HEK293T cells [1] (DNAPK inhibitor 0.3125 μM), the “Total editing Mean” value was 62.8. Moreover, in the assay with HEK293T cells [1] (DNAPK inhibitor 0.625 μM), the “HDR to indel ratio” value turned out to be 0.9, the “Precise KI fold increase” value came out at 2.5 fold, the “MMEJ indels Mean” value was 17.1 and the “NHEJ indels Mean” value came out at 6.1. In the assay on HEK293T cells [1] (DNAPK inhibitor 0.625 μM), the “Total editing Mean” value is recorded as 56.8. In the assay with HEK293T cells [1] (DNAPK inhibitor 1.25 μM), the “HDR to indel ratio” value was 1.0, the “Precise KI fold increase” value came to 2.3 fold, the “MMEJ indels Mean” value is 16.0 and the “NHEJ indels Mean” value is on record as 3.2. In the assay on HEK293T cells [1] (DNAPK inhibitor 1.25 μM), the “Total editing Mean” value amounted to 49.7. In the assay with HEK293T cells [1] (DNAPK inhibitor 5 μM), the “HDR to indel ratio” value is reported as 1.1, the “Precise KI fold increase” value turned out to be 2.6 fold, the “MMEJ indels Mean” value came out at 16.2 and the “NHEJ indels Mean” value is recorded as 2.1. Further, the “Total editing Mean” value in the assay with HEK293T cells [1] (DNAPK inhibitor 5 μM) is 50.9. Besides, in the assay on HEK293T cells [1] (DNAPK inhibitor 10 μM), the “HDR to indel ratio” value was 1.1, the “Precise KI fold increase” value came to 2.1 fold, the “MMEJ indels Mean” value was 13.6 and the “NHEJ indels Mean” value was 1.8. The “Total editing Mean” value in the assay on HEK293T cells [1] (DNAPK inhibitor 10 μM) turned out to be 42.4.
Consider `Cc1cccc(N(C)C(=O)[C@@H]2[C@H](O)CCN2c2nc(C)cc(C(F)(F)F)c2C#N)c1` [ART558], for which, in the assay on HEK293T cells [2] (concentration-dependent), the “precise knock-in frequencies of the single-stranded oligonucleotide donor” value is on record as “increases”. The “unprecise DNA repair events” value in the assay with HEK293T cells [2] (with increasing inhibitor concentration) was “decreases”.
